# Results from US20240041982A1, “EXTENDED RELEASE HYDROGEL CONJUGATES OF C-NATRIURETIC PEPTIDES” (ProLynx LLC, priority 2020, published 2024).
# Bridge positions count the residues as written; N and C are the ends. Ends that are not written are not given here.
# Columns and labels:
# [1] = test system: wild-type male mice (FVB/nJ); test: Pharmacodynamics in juvenile mice: growth and bone length by X-ray; format: in vivo; conditions: QD 70 nmol/kg; after 5 weeks of treatment
# Experimental: Three-week old wild-type male mice (FVB/nJ; Charles River Laboratory, Inc) were administered subcutaneous injections of the conjugates of Example 3 at either a weight-adjusted (nmol/kg) or constant (nmol/animal independent of the initial weight) dose over 35 days. For experiments using constant doses/animal, the conjugate of Example 3 wherein R^1=isopropylsulfonyl (conjugate 4A) was administered at either 20 or 50 nmol/mouse; the conjugate of Example 3 wherein R^1=(N,N-dimethylamino)sulfonyl (conjugate 4B) was administered at either 85 or 600 nmol/mouse. For experiments using weight-adjusted doses/animal, conjugate 4A was administered at either 1.5 or 2.2 umol/kg; conjugate 4B was administered at 6.1 umol/kg. Doses were calculated based on the body weight just prior to dosing and performed at approximately the same time of day. Comparator animals were dosed with either [Gln^6,14]CNP-38 or vosoritide at 70 nmol/kg formulated in 30 mM acetic acid pH 4.0 containing 10% (w/v) sucrose and 1% (v/v) benzyl alcohol (Wendt; Breinholt), and control animals were dosed with the formulation buffer (isotonic acetate (10 mM Na Acetate, 143 mM NaCl), pH 5.0, 0.05% Tween 20 buffer containing 1.2% sodium hyaluronate. Daily weight-adjusted doses were calculated based on the body weight just prior to dosing and performed at approximately the same time each day.
# Blood collections were made via tail vein with the addition of protease inhibitors (Halt protease inhibitor cocktail, ThermoScientific) and processed with K2EDTA to provide ˜15-20 μL plasma, for analysis of free [Gln^6,14]CNP-38. For the mice treated with the conjugate 4A, blood collection occurred at 0, 24, 168, 192, 336, 360, 504, 528, 672 and 840 hr. For the mice treated with conjugate 4B, blood collection occurred at 0, 24, 168, 336, 504, 672 and 840 hr.
# Body weight, tail length and naso-anal length were collected at study initiation and were measured weekly during the in-life treatment period. […] The naso-anal (distance from the tip of the nose to the anus) and the tail length (distance from the anus to the tip of the tail) were measured and recorded. The same ruler was used for all measurements, and all measurements were conducted and recorded in centimeters. Total length (TL) is derived from the addition of the measured tail length and naso-anal length.
# On day 35, the mice were anesthetized and in addition to the nasal-anal and tail length measurements, bone length measurements were made by digital X-ray (spine, right femur, right tibia, humerus and ulna). Following deep anesthesia with isoflurane, the mice were placed in the prone position and the length of the spine (lateral view, distance from the most cranial end of the C1 vertebra to the most caudal end of the S4 vertebra and accounting for curvature manually), the right femur (distance from the most proximal femoral head ossification center to the most distal ossification center in dorso-ventral view), the right tibia (distance from the most proximal ossification center to the most distal ossification center in dorso-ventral view), the right humerus (distance from the most proximal ossification center to the most distal ossification center in dorso-ventral view), and the right ulna (distance from the most proximal ossification center to the most distal ossification center in dorso-ventral view) of each mouse were measured by x-ray using a Spectral Imaging Instruments AMI HTX and the associated Aura software.
# [2] = molecular target: T1, NPR-B (Homo sapiens, UniProt P20594); conditions: physiological concentrations (picomolar); cited from earlier work
# T1 sequence (P20594 23-1047): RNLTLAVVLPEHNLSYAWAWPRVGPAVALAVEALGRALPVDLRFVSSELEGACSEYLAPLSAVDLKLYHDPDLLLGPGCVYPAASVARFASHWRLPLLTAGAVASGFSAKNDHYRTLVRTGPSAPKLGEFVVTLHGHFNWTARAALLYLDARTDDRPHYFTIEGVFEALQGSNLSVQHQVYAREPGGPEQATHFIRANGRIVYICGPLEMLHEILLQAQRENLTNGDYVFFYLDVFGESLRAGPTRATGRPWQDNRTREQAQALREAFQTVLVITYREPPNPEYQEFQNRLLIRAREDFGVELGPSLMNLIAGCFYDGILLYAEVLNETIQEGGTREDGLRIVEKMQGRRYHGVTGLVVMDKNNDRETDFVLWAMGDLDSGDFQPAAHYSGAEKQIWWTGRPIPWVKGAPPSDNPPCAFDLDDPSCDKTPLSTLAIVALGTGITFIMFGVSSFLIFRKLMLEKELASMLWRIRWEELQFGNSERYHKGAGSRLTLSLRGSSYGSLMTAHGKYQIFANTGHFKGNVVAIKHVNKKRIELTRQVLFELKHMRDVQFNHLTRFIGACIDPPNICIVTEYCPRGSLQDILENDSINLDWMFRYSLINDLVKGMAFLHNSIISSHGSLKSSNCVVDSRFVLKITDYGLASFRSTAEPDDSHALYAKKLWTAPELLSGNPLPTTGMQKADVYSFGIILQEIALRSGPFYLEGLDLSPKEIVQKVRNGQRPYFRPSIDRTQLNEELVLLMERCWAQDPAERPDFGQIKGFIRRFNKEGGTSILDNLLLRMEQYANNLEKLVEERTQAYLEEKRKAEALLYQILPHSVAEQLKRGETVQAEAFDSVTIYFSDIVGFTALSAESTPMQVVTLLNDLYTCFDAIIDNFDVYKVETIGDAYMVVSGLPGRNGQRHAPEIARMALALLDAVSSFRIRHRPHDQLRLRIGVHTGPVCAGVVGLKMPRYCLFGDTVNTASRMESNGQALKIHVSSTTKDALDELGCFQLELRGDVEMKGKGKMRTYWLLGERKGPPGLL
# [3] = in vivo; cited from earlier work
# [4] = in vivo; cited from earlier work; remark: listed apart in the source
substance,measurement,setting,value
"(Gln^6,14)CNP38 (LQEHPQARKYKGAQKKGLSKGCFGLKLDRIGSMSGLGC; disulfide 22-38) [[Gln6, 14] CNP-38]",Femur length % change from vehicle,[1],(13.6%)
same,Humerus length % change from vehicle,[1],(0.8%)
same,Spine length % change from vehicle,[1],(10.1%)
same,Tibia length % change from vehicle,[1],(8.7%)
same,Ulna length % change from vehicle,[1],(5.4%)
CNP22,affinity for NPR-B relative to ANP and BNP,[2],50-500 times
same,plasma half-life,[3],~3 min
vosoritide (PGQEHPNARKYKGANKKGLSKGCFGLKLDRIGSMSGLGC; disulfide 23-39),half-life,[3],20 min
same,known side-effects,[4],increased heart rate and a drop in arterial blood pressure
